Source: publication PMC10204490, “Incubation Time Influences Organic Anion Transporter 1 Kinetics and Renal Clearance Predictions” (Journal of Xenobiotics, 2023)

Key:
OAT1 [1] = conditions: cited from earlier work
OAT1 [2] = molecular target: T1, OAT1 (Homo sapiens, UniProt Q4U2R8); assay: Inhibition of [3H]PAH uptake into CHO-OAT1 cells (IC50 determination); conditions: IC50 for inhibition of [3H]PAH uptake, [3H]PAH 20 nM, mean ± SEM, n=4
T1 sequence (Q4U2R8 1-563): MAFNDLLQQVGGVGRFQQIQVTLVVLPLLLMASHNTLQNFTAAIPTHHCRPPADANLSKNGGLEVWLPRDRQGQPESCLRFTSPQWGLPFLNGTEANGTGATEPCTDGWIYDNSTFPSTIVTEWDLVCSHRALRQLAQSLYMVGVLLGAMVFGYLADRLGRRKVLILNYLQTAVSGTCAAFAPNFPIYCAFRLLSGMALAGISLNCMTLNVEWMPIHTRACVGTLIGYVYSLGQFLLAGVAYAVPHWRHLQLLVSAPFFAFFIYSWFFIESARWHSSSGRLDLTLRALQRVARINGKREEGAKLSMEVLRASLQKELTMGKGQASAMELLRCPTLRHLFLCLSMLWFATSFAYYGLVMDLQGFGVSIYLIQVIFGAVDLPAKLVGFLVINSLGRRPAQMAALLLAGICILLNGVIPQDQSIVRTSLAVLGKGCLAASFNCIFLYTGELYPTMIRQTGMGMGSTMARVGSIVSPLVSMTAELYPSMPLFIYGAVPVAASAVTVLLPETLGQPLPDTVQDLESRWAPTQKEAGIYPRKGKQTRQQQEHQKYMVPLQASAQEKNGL
Protocol: All cells were grown to confluence in 24-well flat bottom plates for transport experiments.
Transport experiments involved aspirating the media, rinsing the cells quickly once with WB (0.4 mL), and then adding the transport solution (0.4 mL) to the wells for an amount of time as indicated in the figure legends. Uptake was stopped by aspirating the transport buffer and rinsing the wells three times with ice-cold WB (0.4 mL). The cells were lysed in 0.5 N NaOH/1% sodium dodecyl sulfate (0.4 mL) for 30 min on an orbital shaker and the lysates neutralized with 1 N HCl (0.2 mL). […] Several wells not used for transport were used for determining the number of cells per well with a hemocytometer.
As above, transport inhibition experiments involved aspirating the media, rinsing the cells quickly once with WB (0.4 mL), and then adding the transport solution (0.4 mL) to the wells for an amount of time as indicated in the figure legends.
[I] is the concentration of inhibitor in the transport solution. […] Japp is the apparent maximal transport rate, and C has the same meaning as noted above.

[3] = cited from earlier work
[4] = set-up: method as in earlier work; conditions: measured; cited from earlier work
[5] = set-up: method as in earlier work; conditions: cited from earlier work
OAT1 [6] = molecular target: T1, OAT1; assay: Telmisartan pre-incubation and washout recovery of [3H]PAH uptake in CHO-OAT1 cells

Which results are given for `COc1ccc2[nH]c([S+]([O-])Cc3ncc(C)c(OC)c3C)nc2c1` (stereo not shown) [Omeprazole, omeprazole]?
Inhibition mechanism at OAT1 (OAT1 [1]): mixed-type; IC50 (OAT1 [2]; 15 sec incubation): 9.7 ± 0.8 µM; IC50 (OAT1 [2]; 10 min incubation): 9.2 ± 0.8 µM

With `Nc1ccc(C(=O)NCC(=O)O)cc1` [PAH, Para-aminohippurate] as the molecule, how does the “Clinically-observed plasma clearance (CLi.v.)” value ([3]; 10 mg ∙ kg-1 intravenous dose) read?
The value was 40.6 L/h.

What about the “Observed Vss” value [3] of the same molecule?
The value was 0.23 L/kg.

What about the “Percentage of the dose excreted into the urine as acetyl-PAH” value [3] of the same molecule?
Its value is ~ 10%.

What about the “Reduction in plasma clearance of PAH by co-administered probenecid” value ([3]; human subjects, probenecid 1 g oral dose) of the same molecule?
The value was 1.8 fold.

What about the “Fraction unbound in plasma (fup)” value [4] of the same molecule?
Its value is 0.83.

And the LogP [5]?
The LogP was -2.2.

And the pKa [5]?
Its pKa is 3.83.

With `CCCc1nc2c(C)cc(-c3nc4ccccc4n3C)cc2n1Cc1ccc(-c2ccccc2C(=O)O)cc1` [Telmisartan, telmisartan] as the molecule, how does the “Reversibility of OAT1 inhibition after washout” value (OAT1 [6]; 30 min pre-treatment with telmisartan 0.5 µM, washout in WB with 10% FBS, single experiment) read?
Its value is “reversible, albeit slowly”.

And the “Effect of pre-incubation time on OAT1 transport activity” value (OAT1 [6]; telmisartan 10, 50, 100 or 200 nM, pre-incubation 1, 5, 10 or 30 min, [3H]PAH uptake 15 s)?
The value was “decreased with increasing pre-incubation times”.

And the “Inhibition mechanism at OAT1” value (OAT1 [1])?
The value was “non-competitive”.

And the IC50 (OAT1 [2]; 15 sec incubation)?
Its IC50 is 0.4 ± 0.07 µM.

And the IC50 (OAT1 [2]; 10 min incubation)?
The IC50 was 0.06 ± 0.02 µM.

Which “Inhibition mechanism at OAT1” value (OAT1 [1]) does the source give for `COc1ccc2c(c1)c(CC(=O)O)c(C)n2C(=O)c1ccc(Cl)cc1` [Indomethacin, indomethacin] here?
The value was “competitive”.
